In patent US12209102B2, “Heterocyclic compounds and uses thereof” (Kumquat Biosciences Inc., priority 2022, dated 2025):

Assays:
K-Ras G12V = molecular target: T1, K-Ras G12V (Homo sapiens, UniProt P01116, G12V); assay: HTRF resonance energy transfer assay, K-Ras G12V / SOS1 interaction; type: biochemical; settings: HTRF assay of Example 5; read-out: IC50 against K-Ras G12V
T1 construct: made in house; host or cells: E. coli BL21 (DE3)
Outline: (§1)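 GST-tagged K-Ras (WT or mutant) bound to anti-GST-Eu donor was mixed with His-hSOS1 bound to anti-6His-XL665 acceptor in ~5 mM HEPES pH 7.4, 150 mM NaCl, 1 mM DTT, 0.05% BSA, 0.0025% Igepal. HTRF (ex 337, em 620/665 nm) was read after ~10 min or longer. IC50 came from the 665/620 ratio over duplicates from 10 μM to 0.01 μM.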

K-Ras G12S = molecular target: T2, K-Ras G12S (Homo sapiens, UniProt P01116, G12S); assay: HTRF resonance energy transfer assay, K-Ras G12S / SOS1 interaction; type: biochemical; settings: HTRF assay of Example 5; read-out: IC50 against K-Ras G12S
T2 construct: made in house; host or cells: E. coli BL21 (DE3)
Outline: as §1

K-Ras G12D = molecular target: T3, K-Ras G12D (Homo sapiens, UniProt P01116, G12D); assay: HTRF resonance energy transfer assay, K-Ras G12D / SOS1 interaction; type: biochemical; settings: HTRF assay of Example 5; read-out: IC50 against K-Ras G12D
T3 construct: made in house; host or cells: E. coli BL21 (DE3)
Outline: as §1

SW620 cells = assay: Ras cellular assay, growth of cells with K-Ras G12V mutation (CellTiter-Glo); type: cell-based; settings: Homo sapiens, SW-620; cell growth, Example 9, G12V mutation; read-out: IC50 against SW620 cells
Outline: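 SW620 (K-Ras G12V) cells, e.g. 800/well in RPMI-1640 with 10% heat-inactivated FBS on standard or ultra-low attachment plates, were dosed the day after plating with e.g. a 10-point 3-fold series. Viability by CellTiter-Glo luminescence about 6 days later; IC50 from four-parameter fit.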

GP2D cells = assay: Ras cellular assay, growth of cells with K-Ras G12D mutation (CellTiter-Glo); type: cell-based; settings: cell growth, Example 9, G12D mutation, read-out: IC50 against GP2D cells
K-Ras WT = molecular target: T4, K-Ras WT (Homo sapiens, UniProt P01116); assay: HTRF resonance energy transfer assay, K-Ras WT / SOS1 interaction; type: biochemical; settings: HTRF assay of Example 5; read-out: IC50 against K-Ras WT
T4 construct: made in house; host or cells: E. coli BL21 (DE3)
Outline: as §1

T2 sequence (P01116 1-188 isoform P01116-2 G12S): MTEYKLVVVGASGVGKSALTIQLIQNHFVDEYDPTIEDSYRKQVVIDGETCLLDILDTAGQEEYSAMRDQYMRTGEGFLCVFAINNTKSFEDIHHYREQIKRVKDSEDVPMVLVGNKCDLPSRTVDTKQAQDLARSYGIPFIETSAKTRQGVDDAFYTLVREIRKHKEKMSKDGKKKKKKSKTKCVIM
T1 sequence (P01116 1-188 isoform P01116-2 G12V): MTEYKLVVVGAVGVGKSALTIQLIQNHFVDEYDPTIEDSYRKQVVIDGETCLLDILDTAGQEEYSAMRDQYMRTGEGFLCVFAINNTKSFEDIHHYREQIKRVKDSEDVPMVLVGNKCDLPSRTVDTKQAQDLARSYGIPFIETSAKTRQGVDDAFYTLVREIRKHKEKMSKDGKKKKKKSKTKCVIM
T4 sequence (P01116 1-188 isoform P01116-2): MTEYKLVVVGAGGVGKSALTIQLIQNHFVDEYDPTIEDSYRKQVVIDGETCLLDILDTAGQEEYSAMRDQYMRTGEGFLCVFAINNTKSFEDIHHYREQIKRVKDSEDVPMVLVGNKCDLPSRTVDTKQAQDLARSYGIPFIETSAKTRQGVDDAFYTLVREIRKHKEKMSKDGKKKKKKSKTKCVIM
T3 sequence (P01116 1-188 isoform P01116-2 G12D): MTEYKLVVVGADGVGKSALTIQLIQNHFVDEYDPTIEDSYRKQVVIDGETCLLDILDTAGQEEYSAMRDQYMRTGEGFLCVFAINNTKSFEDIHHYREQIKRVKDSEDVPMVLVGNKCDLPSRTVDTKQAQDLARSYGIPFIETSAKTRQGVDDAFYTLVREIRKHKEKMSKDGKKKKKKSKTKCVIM

| Compound | IC50 (K-Ras G12V) [nM] | IC50 (K-Ras G12S) [nM] | IC50 (K-Ras G12D) [nM] | IC50 (SW620 cells) [nM] | IC50 (K-Ras WT) [nM] | IC50 (GP2D cells) [nM] |
| --- | --- | --- | --- | --- | --- | --- |
| N#Cc1c(N)sc2c(F)ccc(-c3c(Cl)c4c5c(nc(OC[C@@]67CCCN6C[C@H](F)C7)nc5c3F)N(C3CCOC3)[C@@H](C3(O)CC3)CO4)c12 (stereo partly drawn) [Compound 1031, 2-amino-4-((5R)-8-chloro-10-fluoro-2-(((2R,7aS)-2-fluorotetrahydro-1H-pyrrolizin-7a(5H)-yl)methoxy)-5-(1-hydroxycyclopropyl)-4-(tetrahydrofuran-3-yl)-5,6-dihydro-4H-[1,4]oxazepino[5,6,7-de]quinazolin-9-yl)-7-fluorobenzo[b]thiophene-3-carbonitrile] | < 100 | < 100 | < 100 | < 5000 | < 100 | < 500 |
| N#Cc1c(N)sc2c(F)ccc(-c3c(Cl)c4c5c(nc(OC[C@@]67CCCN6C[C@H](F)C7)nc5c3F)N(CCC(F)F)[C@@H](C3(O)CC3)CO4)c12 [Compound 986, 2-amino-4-((R)-8-chloro-4-(3,3-difluoropropyl)-10-fluoro-2-(((2R,7aS)-2-fluorotetrahydro-1H-pyrrolizin-7a(5H)-yl)methoxy)-5-(1-hydroxycyclopropyl)-5,6-dihydro-4H-[1,4]oxazepino[5,6,7-de]quinazolin-9-yl)-7-fluorobenzo[b]thiophene-3-carbonitrile] | < 100 | < 100 | < 100 | < 5000 | < 100 | < 500 |
| N#Cc1c(N)sc2c(F)ccc(-c3c(Cl)c4c5c(nc(OC[C@@]67CCCN6C[C@H](F)C7)nc5c3F)N(CC(F)F)[C@@H](C3CC3)CO4)c12 [Compound 1022, 2-amino-4-((S)-8-chloro-5-cyclopropyl-4-(2,2-difluoroethyl)-10-fluoro-2-(((2R,7aS)-2-fluorotetrahydro-1H-pyrrolizin-7a(5H)-yl)methoxy)-5,6-dihydro-4H-[1,4]oxazepino[5,6,7-de]quinazolin-9-yl)-7-fluorobenzo[b]thiophene-3-carbonitrile] | < 100 | < 100 | < 100 | < 5000 | < 100 | < 500 |
| C#C[C@H]1COc2c(Cl)c(-c3ccc(F)c4sc(N)c(C#N)c34)c(F)c3nc(OC[C@@]45CCCN4C[C@H](F)C5)nc(c23)N1CC(F)F [Compound 730, 2-amino-4-((5S)-8-chloro-4-(2,2-difluoroethyl)-5-ethynyl-10-fluoro-2-(((2R,7aS)-2-fluorotetrahydro-1H-pyrrolizin-7a(5H)-yl)methoxy)-5,6-dihydro-4H-[1,4]oxazepino[5,6,7-de]quinazolin-9-yl)-7-fluorobenzo[b]thiophene-3-carbonitrile] |  |  |  | < 5000 |  | < 500 |
| C=C[C@H]1COc2c(Cl)c(-c3ccc(F)c4sc(N)c(C#N)c34)c(F)c3nc(OC[C@@]45CCCN4C[C@H](F)C5)nc(c23)N1CCC(F)F (single isomer, unassigned) [Compound 727] |  |  |  | < 5000 |  | < 500 |
| N#Cc1c(N)sc2c(F)ccc(-c3c(Cl)c4c5c(nc(OC[C@@]67CCCN6C[C@H](F)C7)nc5c3F)N(CC(F)F)[C@@H](C3CC3C#N)CO4)c12 (stereo partly drawn) [Compound 1109, 2-amino-4-((5S)-8-chloro-5-(2-cyanocyclopropyl)-4-(2,2-difluoroethyl)-10-fluoro-2-(((2R,7aS)-2-fluorotetrahydro-1H-pyrrolizin-7a(5H)-yl)methoxy)-5,6-dihydro-4H-[1,4]oxazepino[5,6,7-de]quinazolin-9-yl)-7-fluorobenzo[b]thiophene-3-carbonitrile] |  |  |  | < 5000 |  | < 500 |

More lines, main results first:

| IC50 (K-Ras G12V) [nM] | IC50 (K-Ras G12S) [nM] | IC50 (K-Ras G12D) [nM] | IC50 (SW620 cells) [nM] | IC50 (K-Ras WT) [nM] | Compound | IC50 (GP2D cells) [nM] |
| --- | --- | --- | --- | --- | --- | --- |
| < 100 | < 100 | < 100 | < 5000 | < 100 | CN1c2nc(OC[C@@]34CCCN3C[C@H](F)C4)nc3c(F)c(-c4ccc(F)c5sc(N)c(C#N)c45)c(Cl)c(c23)OC[C@@H]1CNC=O [Compound 1097, N-(((5S)-9-(2-amino-3-cyano-7-fluorobenzo[b]thiophen-4-yl)-8-chloro-10-fluoro-2-(((2R,7aS)-2-fluorotetrahydro-1H-pyrrolizin-7a(5H)-yl)methoxy)-4-methyl-5,6-dihydro-4H-[1,4]oxazepino[5,6,7-de]quinazolin-5-yl)methyl)formamide] | < 500 |
| < 100 | < 100 | < 100 | < 5000 | < 100 | N#Cc1c(N)sc2c(F)ccc(-c3c(Cl)c4c5c(nc(OC[C@@]67CCCN6C[C@H](F)C7)nc5c3F)N(CC(F)F)[C@H](C3(C#N)CC3)CO4)c12 [Compound 722, 2-amino-4-((R)-8-chloro-5-(1-cyanocyclopropyl)-4-(2,2-difluoroethyl)-10-fluoro-2-(((2R,7aS)-2-fluorotetrahydro-1H-pyrrolizin-7a(5H)-yl)methoxy)-5,6-dihydro-4H-[1,4]oxazepino[5,6,7-de]quinazolin-9-yl)-7-fluorobenzo[b]thiophene-3-carbonitrile] | < 500 |
| < 100 | < 100 | < 100 | < 5000 | < 100 | CC(C)(O)[C@H]1COc2c(Cl)c(-c3ccc(F)c4sc(N)c(C#N)c34)c(F)c3nc(OC[C@@]45CCCN4C[C@H](F)C5)nc(c23)N1C1CCOC1 (stereo partly drawn) [Compound 1041, 2-amino-4-((5R)-8-chloro-10-fluoro-2-(((2R,7aS)-2-fluorotetrahydro-1H-pyrrolizin-7a(5H)-yl)methoxy)-5-(2-hydroxypropan-2-yl)-4-(tetrahydrofuran-3-yl)-5,6-dihydro-4H-[1,4]oxazepino[5,6,7-de]quinazolin-9-yl)-7-fluorobenzo[b]thiophene-3-carbonitrile] | < 500 |
| < 100 | < 100 | < 100 | < 5000 | < 100 | COCCN1c2nc(OC[C@@]34CCCN3C[C@H](F)C4)nc3c(F)c(-c4ccc(F)c5sc(N)c(C#N)c45)c(Cl)c(c23)OC[C@@H]1CNC=O [Compound 607, N-(((5S)-9-(2-amino-3-cyano-7-fluorobenzo[b]thiophen-4-yl)-8-chloro-10-fluoro-2-(((2R,7aS)-2-fluorotetrahydro-1H-pyrrolizin-7a(5H)-yl)methoxy)-4-(2-methoxyethyl)-5,6-dihydro-4H-[1,4]oxazepino[5,6,7-de]quinazolin-5-yl)methyl)formamide] | < 500 |
| < 100 | < 100 |  | < 5000 | < 100 | C[C@H]1COc2c(Cl)c(-c3ccc(F)c4sc(N)c(C#N)c34)c(F)c3nc(OC[C@@]45CCCN4C[C@H](F)C5)nc(c23)N1CC(F)F [Compound 1088, 2-amino-4-((5S)-8-chloro-4-(2,2-difluoroethyl)-10-fluoro-2-(((2R,7aS)-2-fluorotetrahydro-1H-pyrrolizin-7a(5H)-yl)methoxy)-5-methyl-5,6-dihydro-4H-[1,4]oxazepino[5,6,7-de]quinazolin-9-yl)-7-fluorobenzo[b]thiophene-3-carbonitrile] | < 500 |
